In patent publication US5017723A, “Substituted ethylamines, their preparation process, their use as medicine and their synthesising agents” (Jouveinal S.A., priority 1990, dated 1991):
Read-outs that look alike come from different tables or passages of the source.

Assays:
[1] = tested on: convulsion induced by picrotoxine in mice; test: Protection against picrotoxine-induced convulsion (suppression of the tonic extension phase); type: in vivo, male Swiss mice; conditions: for responders at 50 mg/kg: ip, 0.5 h, read-out: i.p.: % prot. (percentage of protected animals), 50 mg/kg i.p., picrotoxine 24 mg/kg i.p. 30 min later; for responders at 100 mg/kg: 1 h, read-out: p.o.: % prot. (percentage of protected animals), 100 mg/kg p.o., picrotoxine 24 mg/kg i.p. 60 min later
Text: The psychotropic properties of the compounds have been determined by the protection of the induced convulsion by picrotoxine for mice, which is achieved by the method derived from that of Krall et al., "Epilepsia", 1978, 19, p. 409-428.
The administration of picrotoxine caused a convulsive crisis in the animal characterised by a myoclonic extension syndrome followed by the extension of the limbs causing the animal to die. Certain substances, particularly those active on the complex GABA/benzodiazepines/Cl-ionophore makes it possible to protect the animals from this convulsive crisis.
In practice the study is carried out on batches of 10 male "Swiss" mice weighing approximately 20 g, which are administered with the product to be studied in aqueous solution either by intraperitoneal route (i.p.) at the rate of 50 mg/kg and in a volume of 0.2 ml of solution per animal, or by oral route (p.o) in a volume of 2.0 ml of solution per animal.
An injection of a solution of picrotoxine at the rate of 24 mg/kg in a volume of 0.2 ml per animal is then administered by interperitoneal route, either 30 minutes after administering the product by interperitoneal route or 60 minutes after administering the product by oral route. The dose of the product injected causing a clonic crisis, which results in untreated animals dying. The suppression of the extension tonic phase in the animals treated under the conditions of the test is observed. The results are expressed:
either in percentages of protected animals of this phase to the reaction of 50 mg/kg of the compound of the study administered by i.p. route or 100 mg/kg by p.o route,
or in DE50 for each of these routes, which is the efficient dosage of the test compound expressed in mg/kg protecting 50% of the animals of this extension phase. The significant value of the results being generally indicated in the following manner:
* Significant result at p<0.05
** Significant result at p<0.01
*** Significant highly significant at p<0.001.

opiated mu receptor = opiated mu receptor (Cavia porcellus, UniProt A0ACM8Q262); type: binding, guinea pig
Procedure: (§1) The analysis is carried out in accordance with the technique described by F. Roman et al. in J. Pharm. Pharmcol. 1987, 39, p. 404-407 which consists of analysing the displacement of specific radioactive ligands of the opiated mu, delta and kappa sub receptors by the action of the test products on the membranous receptors of a guinea pig.

bladder of the rat = test: Transvesical cystomanometry on wide awake rat (urological activity); type: in vivo, female rat; conditions: for activity on the urinary tract compared to the reference compounds (in words): compared to Dicyclomine and Baclofen; for change in vivo at 2.5 mg/kg / change in vivo at 5 mg/kg / change in vivo at 1 mg/kg: Rattus norvegicus, iv; for change in vivo at 5 mg/kg: 5,0 mg/kg i.v.; for change in vivo at 1 mg/kg: 1,0 mg/kg i.v.
Procedure: Studies by a similar method of operation, the compounds of the invention (I.A) which show a mu and kappa affinity also have an activity on certain functional parameters of the bladder of the rat which justifies their interest in the treatment of dysfunctions in the urinary tract.
The study carried out consists of transvesical cystomanometry on a wide awake rat. The following was measured during the storage and emission phases of urine under continuous intervesical perfusion of sterile physiological serum:
the "threshold pressure", which is the intervesical pressure immediately preceding the contraction phase of the detrusor
the volume of each urinary emission.
The technique used in the female rat consisted of preparing the animals 48 hours before the actual experiment by effecting the implantation of two catheters in the apex of the bladder and one catheter in the left-hand jugular vein under anaesthetic, with the external end of these catheters being protected and held by a sticking plaster corset.
The animals were placed in suitable cages at the time of the test, which were equipped so as to collect and measure the urine. For each animal one vesical catheter was connected to a pressure sensor, the other to a perfusor which supplied 0.2 ml/min. of sterile physiological serum continuously.
The intravesical pressure was measured continuously during the perfusion and it was possible to observe:
a filling phase of the bladder during which the pressure increased progressively,
a sudden rising phase of this pressure during the contraction of the detrusor: the "threshold" pressure which is the pressure observed just before the pressure of the contraction phase. This threshold pressure was raised in the same way as the urinary volume at each urination.
The study consisted of observing the changes in these parameters by the action of the products (IA) which were administered in solution by intravenous route by means of the catheter placed in the left jugular vein.
Dicyclomine and Baclofen which have been considered for the treatment of hyperactive bladders (Drugs of Today, Vol. 24, no. 5, 1988, p. 337-348) were also used in this test in the form of comparison products.

opiated kappa receptor = target: T1, opiated kappa receptor (Cavia porcellus, UniProt P41144); test: Displacement of specific radioactive ligands, opiated kappa receptor; type: binding, guinea pig; conditions: inhibition of 50% of radioligand bonds; read-out: CI50 affinity kappa rec.
T1 construct: membranous receptors of a guinea pig; from tissue
Procedure: as §1

opiated delta receptor = target: T2, opiated delta receptor (Cavia porcellus, UniProt A0A286XTF2); test: Displacement of specific radioactive ligands, opiated delta receptor; type: binding, guinea pig; conditions: inhibition of 50% of radioligand bonds; read-out: CI50 affinity delta rec.
T2 construct: membranous receptors of a guinea pig; from tissue
Procedure: as §1

[2] = Mus musculus, * p<0.05, ** p<0.01, *** p<0.001
[3] = Mus musculus, po, * p<0.05, ** p<0.01, *** p<0.001
[4] = inhibition of 50% of radioligand bonds; read-out: CI50 affinity mu rec.
[5] = read-out: % variation pressure threshold

T2 sequence (A0A286XTF2 1-366): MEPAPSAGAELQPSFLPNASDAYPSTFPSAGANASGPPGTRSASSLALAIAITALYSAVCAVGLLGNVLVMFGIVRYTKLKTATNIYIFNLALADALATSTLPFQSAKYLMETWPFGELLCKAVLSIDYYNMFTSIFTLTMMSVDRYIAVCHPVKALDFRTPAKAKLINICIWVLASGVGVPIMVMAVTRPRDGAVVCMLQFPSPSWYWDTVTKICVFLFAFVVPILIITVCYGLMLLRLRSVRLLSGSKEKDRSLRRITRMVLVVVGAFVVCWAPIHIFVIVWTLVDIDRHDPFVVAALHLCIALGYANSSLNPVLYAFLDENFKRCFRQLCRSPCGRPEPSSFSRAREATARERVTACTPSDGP
Sequence of opiated mu receptor (A0ACM8Q262 1-400): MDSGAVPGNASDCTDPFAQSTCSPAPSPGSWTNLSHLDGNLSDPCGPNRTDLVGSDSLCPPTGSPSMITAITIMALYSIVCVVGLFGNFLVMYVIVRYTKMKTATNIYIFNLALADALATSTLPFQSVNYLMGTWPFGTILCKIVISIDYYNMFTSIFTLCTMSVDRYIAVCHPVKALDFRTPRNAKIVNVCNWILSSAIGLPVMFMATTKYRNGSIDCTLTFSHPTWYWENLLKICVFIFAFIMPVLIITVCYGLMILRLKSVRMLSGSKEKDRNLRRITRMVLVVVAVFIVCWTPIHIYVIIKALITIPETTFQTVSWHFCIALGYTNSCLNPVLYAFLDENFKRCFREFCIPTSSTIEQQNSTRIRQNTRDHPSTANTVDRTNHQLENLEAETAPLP
T1 sequence (P41144 whole entry): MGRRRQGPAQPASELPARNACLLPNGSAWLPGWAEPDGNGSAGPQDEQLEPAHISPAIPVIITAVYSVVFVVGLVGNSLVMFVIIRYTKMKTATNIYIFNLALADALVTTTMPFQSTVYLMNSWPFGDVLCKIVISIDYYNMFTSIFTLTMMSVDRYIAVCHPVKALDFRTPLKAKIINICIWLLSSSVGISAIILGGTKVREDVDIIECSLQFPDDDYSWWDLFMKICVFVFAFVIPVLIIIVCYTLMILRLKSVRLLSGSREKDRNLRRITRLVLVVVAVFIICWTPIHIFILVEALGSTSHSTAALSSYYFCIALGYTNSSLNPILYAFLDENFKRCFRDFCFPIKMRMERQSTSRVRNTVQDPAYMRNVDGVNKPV

SMILES | responders at 50 mg/kg [1, 2] [%] | responders at 100 mg/kg [1, 3] [%] | IC50 (opiated mu receptor; [4]) [µM] | IC50 (opiated kappa receptor) [µM] | IC50 (opiated delta receptor) [µM] | further results
CCC(CC=Cc1ccccc1)(c1ccc(Cl)cc1)N(C)C (single isomer, unassigned; (+)) [Example 52, (+) a-cinnamyl-N,N-dimethyl-a-ethyl-p.chlorobenzylamine] | 70 | 90 | 0.007 | 0.099 | – | activity on the urinary tract compared to the reference compounds (in words) (bladder of the rat): important activity
CCC(N)(CC=Cc1ccccc1)c1ccc(Cl)cc1 (single isomer, unassigned; (-)) [Example 17B, (-)a-cinnamyl-a-ethyl-p.chlorobenzylamine] | – | – | 0.0114 | – | – | i.p.: % prot. (percentage of protected animals) ([1]; 50 mg/kg i.p., picrotoxine 24 mg/kg i.p. 30 min later, * p<0.05, ** p<0.01, *** p<0.001): 80%; p.o.: % prot. (percentage of protected animals) ([1]; 100 mg/kg p.o., picrotoxine 24 mg/kg i.p. 60 min later, * p<0.05, ** p<0.01, *** p<0.001): 50%
NCC(CC(=O)O)c1ccc(Cl)cc1 (stereo not drawn) [Baclofen, reference compound] | – | – | – | – | – | change in vivo at 2.5 mg/kg (bladder of the rat; [5]): 113%; change in vivo at 2.5 mg/kg (bladder of the rat; read-out: % variation volume): 32%; activity on the urinary tract compared to the reference compounds (in words) (bladder of the rat): most active comparative product in these tests
CCN(CC)CCOC(=O)C1(C2CCCCC2)CCCCC1 [Dicyclomine, reference compound] | – | – | – | – | – | change in vivo at 2.5 mg/kg (bladder of the rat; 2,5 mg/kg i.v., read-out: % variation pressure threshold): 28%; change in vivo at 2.5 mg/kg (bladder of the rat; 2,5 mg/kg i.v., read-out: % variation volume): 20%
CCC(CC=Cc1ccccc1)(NC)c1ccc(Cl)cc1 (stereo not drawn) [Example 19, a-cinnamyl-a-ethyl-N-methyl-p.chlorobenzylamine] | 70 | – | 0.2 | 0.264 | 3.49 | change in vivo at 5 mg/kg (bladder of the rat; [5]): 354%; change in vivo at 5 mg/kg (bladder of the rat; read-out: % variation volume): 54%
CNC(CC=Cc1ccc(Cl)c(Cl)c1)(c1ccccc1)C(C)C (stereo not drawn) [Example 23, a-(3',4'-dichloro)cinnamyl-a-isopropyl-N-methyl-benzylamine] | 60 | 100 | 0.08 | 0.34 | 1.38 | change in vivo at 5 mg/kg (bladder of the rat; [5]): 196%; change in vivo at 5 mg/kg (bladder of the rat; read-out: % variation volume): 35%
CCC(CC=Cc1ccc(Cl)c(Cl)c1)(NC)c1ccc(C)cc1 (stereo not drawn) [Example 24, a-(3',4'-dichloro)cinnamyl-a-ethyl-N-methyl-p.methylbenzylamin] | – | – | 0.021 | 0.41 | 1.4 | p.o.: DE50 ([1]; p.o. route, value printed with a % sign): 73,5%
CCC(CC=Cc1ccc(Cl)c(Cl)c1)(NC)c1ccc(OC)cc1 (stereo not drawn) [Example 25, a-(3',4'-dichloro)cinnamyl-a-ethyl-N-methyl-p.methoxybenzylamine] | – | 50 | 0.056 | 0.875 | 1.59 | change in vivo at 5 mg/kg (bladder of the rat; [5]): 85%; change in vivo at 5 mg/kg (bladder of the rat; read-out: % variation volume): 67%
CCC(CC=Cc1ccc(Cl)c(Cl)c1)(NC)c1ccc(Cl)cc1 (stereo not drawn) [Example 26, a-(3' ,4'-dichloro)cinnamyl-a-ethyl-N-methyl-p.chlorobenzylamine] | – | – | 0.028 | 0.458 | 1.07 | change in vivo at 5 mg/kg (bladder of the rat; [5]): 229%; change in vivo at 5 mg/kg (bladder of the rat; read-out: % variation volume): 93%
CCC(CC=Cc1ccccc1)(c1ccc(Cl)cc1)N(C)C (stereo not drawn) [Example 31, a-cinnamyl-N,N-dimethyl-a-ethyl-p.chlorobenzylamine] | 100 | 50 | 0.08 | 0.21 | 1.34 | activity on the urinary tract compared to the reference compounds (in words) (bladder of the rat): important activity
CCC(CC=Cc1ccccc1)(c1ccc(C)cc1)N(C)C (stereo not drawn) [Example 33] | – | – | – | 0.12 | 1.23 | IC50 (opiated mu receptor; read-out: CI50 affinity mu rec.; inhibition of 50% of radioligand bonds): 0.05 µM; activity on the urinary tract compared to the reference compounds (in words) (bladder of the rat): important activity
CCC(CC=Cc1ccccc1)(c1ccc(OC)cc1)N(C)C (stereo not drawn) [Example 35, a-cinnamyl-N,N-dimethyl-a-ethyl-p.methoxybenzylamine] | 90 | – | 0.06 | 0.29 | 1.28 | ED50 ([1]; Mus musculus, po, read-out: p.o.: DE50): 40.3 mg/kg; change in vivo at 1 mg/kg (bladder of the rat; [5]): 200%; change in vivo at 1 mg/kg (bladder of the rat; read-out: % variation volume): 39%; activity on the urinary tract compared to the reference compounds (in words) (bladder of the rat): important activity
CCC(CC=Cc1cc(OC)c(OC)c(OC)c1)(c1ccccc1)N(C)C (stereo not drawn) [Example 37] | – | – | 0.1 | 0.23 | 0.15 | change in vivo at 5 mg/kg (bladder of the rat; [5]): 188%; change in vivo at 5 mg/kg (bladder of the rat; read-out: % variation volume): 53%
CCC(CC=Cc1ccccc1)(c1ccco1)N(C)C (stereo not drawn) [Example 59, a-cinnamyl-N,N-dimethyl-a-ethyl-2-furfurylamine] | 90 | 100 | – | – | – | –
CCC(CC=Cc1cccs1)(c1ccco1)N(C)C (stereo not drawn) [Example 61, N,N-dimethyl-a-ethyl-a-[3-(2-thienyl)-2-propenyl]-2-furfurylamine] | 50 | – | – | – | – | –
CCC(CC=Cc1ccccc1)(c1cccs1)N(C)C (stereo not drawn) [Example 62, a-cinnamyl-N,N-dimethyl-a-ethyl-2-thienylmethylamine] | – | 80 | – | – | – | –
CCC(CC=Cc1ccco1)(c1cccs1)N(C)C (stereo not drawn) [Example 64, N,N-dimethyl-a-ethyl-a-[3-(2-furyl)-2-propenyl]-2-thienylmethylamine] | 70 | 50 | – | – | – | –
CCC(CC=Cc1cccs1)(c1cccs1)N(C)C (stereo not drawn) [Example 65, N,N-dimethyl-a-ethyl-a-[3-(2-thienyl)-2-propenyl]-2-thienylmethylamine] | 90 | 50 | – | – | – | –
CCC(CC=Cc1ccccc1)(c1ccsc1)N(C)C (stereo not drawn) [Example 67, a-cinnamyl-N,N-dimethyl-a-ethyl-3-thienylmethylamine] | 70 | 100 | – | – | – | –
CCC(CC=Cc1cccs1)(c1ccsc1)N(C)C (stereo not drawn) [Example 69, N,N-dimethyl-a-ethyl-a-[3-(2-thienyl)-2-propenyl]-3-thienylmethylamine] | 90 | 80 | – | – | – | –
CCC(CC=Cc1ccsc1)(c1ccsc1)N(C)C (stereo not drawn) [Example 70, N.N-dimethyl-a-ethyl-a-[3-(3-thienyl)-2-propenyl]-3-thienylmethylamine] | 80 | 100 | – | – | – | –
